Assay type in all cases: functional, cell-based
The subject of test [1] is MCF7. The test is described as follows: Antiproliferative activity against human MCF7 cells after 24 to 72 hrs by MTT assay.
Test [2] concerns MDA-MB-231. The test is described as follows: Antiproliferative activity against human MDA-MB-231 cells after 24 to 72 hrs by MTT assay.
For test [3], the system named is MCF7. Briefly: Antiproliferative activity against human MCF7 cells after 72 hrs by MTT assay. Conditions: MCF7, 72 h.
The test system of test [4] is MDA-MB-231. Briefly: Antiproliferative activity against human MDA-MB-231 cells after 72 hrs by MTT assay. Conditions: MDA-MB-231, 72 h.

pIC50: −log10 of the molar value.

For `C[C@H](CC[C@@H](O)[C@@](C)(O)CO)[C@H]1CC[C@@]2(C)C3=CC[C@H]4C(C)(C)C(=O)CC[C@]4(C)C3=CC[C@]12C`, the values for the pIC50 in the test on MCF7 [1] and in the test on MDA-MB-231 [2] were 4.62 and 4.47, respectively.
`C[C@H](CC[C@H](O)[C@@](C)(O)CO)[C@H]1CC[C@@]2(C)C3=CC[C@H]4C(C)(C)C(=O)CC[C@]4(C)C3=CC[C@]12C`: the figures for the pIC50 in the test with MCF7 [1] and in the test with MDA-MB-231 [2] were 4.79 and 4.44, respectively.
The like results for `C[C@H](CC[C@@H](O)[C@](C)(O)CO)[C@H]1CC[C@@]2(C)C3=CC[C@H]4C(C)(C)C(=O)CC[C@]4(C)C3=CC[C@]12C` were, in that order, 4.62 and 4.95.
Consider `C[C@H](CC[C@H](O)[C@](C)(O)CO)[C@H]1CC[C@@]2(C)C3=CC[C@H]4C(C)(C)C(=O)CC[C@]4(C)C3=CC[C@]12C` [GANODERMANONTRIOL], for which the pIC50 is 5.24 in the test with MCF7 [3] and 5.01 in the test on MDA-MB-231 [4].

The values above are taken from ChEMBL document CHEMBL1921753, “Semisynthesis and biological evaluation of ganodermanontriol and its stereoisomeric triols” (J Nat Prod, 2011).
